Test results published in the NIST ThermoML archive (doi:10.1021/je0602824).

Assay: xn = mol fraction of the nth substance listed
Conditions: 101 kPa, Liquid

CCn1cc[n+](C)c1.O=S(=O)([O-])C(F)(F)F [1-ethyl-3-methylimidazolium trifluoromethanesulfonate] + O
Conditions | mass density [kg/m3] | viscosity [mPa·s]
278.15 K, x2 = 0 | 1400.52 | 96
278.15 K, x2 = 0.2286 | – | 47
278.15 K, x2 = 0.2295 | 1388.3 | –
278.15 K, x2 = 0.431 | 1372.38 | –
278.15 K, x2 = 0.4324 | – | 28
278.15 K, x2 = 0.6157 | 1347.34 | –
278.15 K, x2 = 0.6159 | – | 18
278.15 K, x2 = 0.7825 | 1299.91 | –
278.15 K, x2 = 0.783 | – | 10
278.15 K, x2 = 0.8608 | 1254.76 | –
278.15 K, x2 = 0.9352 | – | 5
278.15 K, x2 = 0.9353 | 1171.9 | –
278.15 K, x2 = 0.9712 | 1097.49 | –
278.15 K, x2 = 0.9924 | 1030.35 | –
288.15 K, x2 = 0 | 1392.04 | 61
288.15 K, x2 = 0.2286 | – | 32
288.15 K, x2 = 0.2295 | 1379.81 | –
288.15 K, x2 = 0.431 | 1363.87 | –
288.15 K, x2 = 0.4324 | – | 20
288.15 K, x2 = 0.6157 | 1338.87 | –
288.15 K, x2 = 0.6159 | – | 13
288.15 K, x2 = 0.7825 | 1291.74 | –
288.15 K, x2 = 0.783 | – | 7
288.15 K, x2 = 0.8608 | 1247.16 | –
288.15 K, x2 = 0.9352 | – | 4
288.15 K, x2 = 0.9353 | 1165.97 | –
288.15 K, x2 = 0.9712 | 1093.64 | –
288.15 K, x2 = 0.9924 | 1028.64 | –
298.15 K, x2 = 0 | 1383.6 | 41
298.15 K, x2 = 0.2286 | – | 23
298.15 K, x2 = 0.2295 | 1371.36 | –
298.15 K, x2 = 0.431 | 1355.39 | –
298.15 K, x2 = 0.4324 | – | 15
298.15 K, x2 = 0.6157 | 1330.37 | –
298.15 K, x2 = 0.6159 | – | 10
298.15 K, x2 = 0.7825 | 1283.47 | –
298.15 K, x2 = 0.783 | – | 6
298.15 K, x2 = 0.8608 | 1239.38 | –
298.15 K, x2 = 0.9352 | – | 3
298.15 K, x2 = 0.9353 | 1159.65 | –
298.15 K, x2 = 0.9712 | 1089.08 | –
298.15 K, x2 = 0.9924 | 1025.88 | –
308.15 K, x2 = 0 | 1375.22 | 29
308.15 K, x2 = 0.2286 | – | 17
308.15 K, x2 = 0.2295 | 1362.95 | –
308.15 K, x2 = 0.431 | 1346.93 | –
308.15 K, x2 = 0.4324 | – | 12
308.15 K, x2 = 0.6157 | 1321.86 | –
308.15 K, x2 = 0.6159 | – | 8
308.15 K, x2 = 0.7825 | 1275.1 | –
308.15 K, x2 = 0.783 | – | 5
308.15 K, x2 = 0.8608 | 1231.42 | –
308.15 K, x2 = 0.9352 | – | 3
308.15 K, x2 = 0.9353 | 1152.94 | –
308.15 K, x2 = 0.9712 | 1083.9 | –
308.15 K, x2 = 0.9924 | 1022.24 | –
318.15 K, x2 = 0 | 1366.9 | 21
318.15 K, x2 = 0.2286 | – | 13
318.15 K, x2 = 0.2295 | 1354.59 | –
318.15 K, x2 = 0.431 | 1338.49 | –
318.15 K, x2 = 0.4324 | – | 10
318.15 K, x2 = 0.6157 | 1313.33 | –
318.15 K, x2 = 0.6159 | – | 7
318.15 K, x2 = 0.7825 | 1266.62 | –
318.15 K, x2 = 0.783 | – | 4
318.15 K, x2 = 0.8608 | 1223.27 | –
318.15 K, x2 = 0.9352 | – | 3
318.15 K, x2 = 0.9353 | 1145.88 | –
318.15 K, x2 = 0.9712 | 1078.18 | –
318.15 K, x2 = 0.9924 | 1017.86 | –
328.15 K, x2 = 0 | 1358.63 | 16
328.15 K, x2 = 0.2286 | – | 10
328.15 K, x2 = 0.2295 | 1346.27 | –
328.15 K, x2 = 0.431 | 1330.07 | –
328.15 K, x2 = 0.4324 | – | 8
328.15 K, x2 = 0.6157 | 1304.78 | –
328.15 K, x2 = 0.6159 | – | 6
328.15 K, x2 = 0.7825 | 1258.04 | –
328.15 K, x2 = 0.783 | – | 4
328.15 K, x2 = 0.8608 | 1214.94 | –
328.15 K, x2 = 0.9352 | – | 3
328.15 K, x2 = 0.9353 | 1138.49 | –
328.15 K, x2 = 0.9712 | 1071.95 | –
328.15 K, x2 = 0.9924 | 1012.83 | –
338.15 K, x2 = 0 | 1350.43 | 13
338.15 K, x2 = 0.2286 | – | 9
338.15 K, x2 = 0.2295 | 1338.01 | –
338.15 K, x2 = 0.431 | 1321.68 | –
338.15 K, x2 = 0.4324 | – | 7
338.15 K, x2 = 0.6157 | 1296.19 | –
338.15 K, x2 = 0.6159 | – | 5
338.15 K, x2 = 0.7825 | 1249.35 | –
338.15 K, x2 = 0.783 | – | 4
338.15 K, x2 = 0.8608 | 1206.43 | –
338.15 K, x2 = 0.9352 | – | 2
338.15 K, x2 = 0.9353 | 1130.76 | –
338.15 K, x2 = 0.9712 | 1065.25 | –
338.15 K, x2 = 0.9924 | 1007.21 | –
348.15 K, x2 = 0 | 1342.3 | 11
348.15 K, x2 = 0.2286 | – | 7
348.15 K, x2 = 0.2295 | 1329.77 | –
348.15 K, x2 = 0.431 | 1313.29 | –
348.15 K, x2 = 0.4324 | – | 6
348.15 K, x2 = 0.6157 | 1287.58 | –
348.15 K, x2 = 0.6159 | – | 5
348.15 K, x2 = 0.7825 | 1240.55 | –
348.15 K, x2 = 0.783 | – | 3
348.15 K, x2 = 0.8608 | 1197.74 | –
348.15 K, x2 = 0.9352 | – | 2
348.15 K, x2 = 0.9353 | 1122.73 | –
348.15 K, x2 = 0.9712 | 1058.13 | –
348.15 K, x2 = 0.9924 | 1001.05 | –
